Measurements: US20260274833A1 (NiKang Therapeutics, Inc., priority 2022, published 2026)

molecular target: T1, CDK2 (Homo sapiens, UniProt P24941); test: Phospho-RB measurement in OVCAR3 cells (HTRF phospho-RB cellular kit); type: cell-based; details: inhibition of RB phosphorylation at S807/811 (HTRF), 24 h compound treatment
T1 construct: endogenous in cells; host or cells: OVCAR3 cells
How it was run: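 IC50 came from a four-parameter logistic fit of the DMSO-normalized TR-FRET ratio (665/620 nm). That ratio reflects RB phosphorylation at S807/811, read with an HTRF antibody pair 4 h after adding lysate at room temperature.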

Question: With `CC(=O)N1CCN(S(=O)(=O)Nc2cccc(-c3nc(C(C)(C)C)sc3-c3ccnc(NC4CCN(S(C)(=O)=O)CC4)n3)c2F)CC1` [Example 88, 4-acetyl-N-(3-(2-(tert-butyl)-5-(2-((1-(methylsulfonyl)piperidin-4-yl)amino)-pyrimidin-4-yl)thiazol-4-yl)-2-fluoro-phenyl)-piperazine-1-sulfonamide] as the molecule, how does the IC50 read?
Answer: > 10000 nM

Question: With `CC(C)(C)c1nc(-c2cccc(NS(=O)(=O)N3CCn4cnnc4C3)c2F)c(-c2ccnc(NC3CCN(S(C)(=O)=O)CC3)n2)s1` [Example 90, N-(3-(2-(tert-butyl)-5-(2-((1-(methylsulfonyl)-piperidin-4-yl)amino)-pyrimidin-4-yl)thiazol-4-yl)~2~fluoro-phenyl)-5,6-dihydro-[1,2,4] triazolo-[4,3-a]pyrazine-7(8H)-sulfonamide] as the molecule, how does the IC50 read?
Answer: > 10000 nM

same assay, conditions: inhibition of RB phosphorylation at S807/811 (HTRF, TR-FRET ratio 665/620), 24 h compound treatment, 0.3 to 10,000 nM

Question: For `CC(C)(C)c1nc(-c2cccc(NS(=O)(=O)N3Cc4ccc(F)cc4C3)c2F)c(-c2ccnc(NC3CCN(S(C)(=O)=O)CC3)n2)s1` [Example 70, N-(3-(2-(tert-butyl)-5-(2-((1-(methylsulfonyl)-piperidin-4-yl)amino)-pyrimidin-4-yl)thiazol-4-yl)-2-fluoro-phenyl)-5-fluoroisoindoline-2-sulfonamide], which IC50 is on record?
Answer: 94 nM

Question: `CC(C)(C)c1nc(-c2cccc(NS(=O)(=O)N3Cc4cccc(F)c4C3)c2F)c(-c2ccnc(NC3CCN(S(C)(=O)=O)CC3)n2)s1` [Example 71, N-(3-(2-(tert-butyl)-5-(2-((1-(methylsulfonyl)-piperidin-4-yl)amino)-pyrimidin-4-yl)thiazol-4-yl)-2-fluoro-phenyl)-4-fluoroisoindoline-2-sulfonamide] was tested. Which IC50 did it give?
Answer: 76 nM

Question: `COc1ccc2c(c1)CN(S(=O)(=O)Nc1cccc(-c3nc(C(C)(C)C)sc3-c3ccnc(NC4CCN(S(C)(=O)=O)CC4)n3)c1F)C2` [Example 72, N-(3-(2-(tert-butyl)-5-(2-((1-(methylsulfonyl)-piperidin-4-yl)amino)-pyrimidin-4-yl)thiazol-4-yl)-2-fluoro-phenyl)-5-methoxyisoindoline-2-sulfonamide] was tested. Which IC50 did it give?
Answer: 185 nM

Question: For `CC(C)(C)c1nc(-c2cccc(NS(=O)(=O)N3CCc4ccccc43)c2F)c(-c2ccnc(NC3CCN(S(C)(=O)=O)CC3)n2)s1` [Example 73, N-(3-(2-(tert-butyl)-5-(2-((1-(methylsulfonyl)-piperidin-4-yl)amino)-pyrimidin-4-yl)thiazol-4-yl)-2-fluoro-phenyl)indoline-1-sulfonamide], which IC50 is on record?
Answer: 58 nM

Question: `CC(C)(C)c1nc(-c2cccc(NS(=O)(=O)N3CCc4ccccc4C3)c2F)c(-c2ccnc(NC3CCN(S(C)(=O)=O)CC3)n2)s1` [Example 74, N-(3-(2-(tert-butyl)-5-(2-((1-(methylsulfonyl)-piperidin-4-yl)amino)-pyrimidin-4-yl)thiazol-4-yl)-2-fluoro-phenyl)-3,4-dihydro-isoquinoline-2(1H)-sulfonamide] was tested. Which IC50 did it give?
Answer: 180 nM

Question: For `CNS(=O)(=O)N1CCC(Nc2nccc(-c3sc(C(C)(C)C)nc3-c3cccc(NS(=O)(=O)N4Cc5ccccc5C4)c3F)n2)CC1` [Example 75, N-(3-(2-(tert-butyl)-5-(2-((1-(N-methylsulfamoyl)piperidin-4-yl)amino)-pyrimidin-4-yl)thiazol-4-yl)-2-fluoro-phenyl)-isoindoline-2-sulfonamide], which IC50 is on record?
Answer: 65 nM

Question: With `CC(C)(C)c1nc(-c2cccc(NS(=O)(=O)N3Cc4ccccc4C3)c2F)c(-c2ccnc(NC3CCN(S(N)(=O)=O)CC3)n2)s1` [Example 76, N-(3-(2-(tert-butyl)-5-(2-((1-sulfamoyl-piperidin-4-yl)amino)pyrimidin-4-yl)thiazol-4-yl)-2-fluorophenyl)-isoindoline-2-sulfonamide] as the molecule, how does the IC50 read?
Answer: 65 nM

Question: With `CC(C)(C)c1nc(-c2cccc(NS(=O)(=O)N3Cc4cc(F)c(F)cc4C3)c2F)c(-c2ccnc(NC3CCN(S(C)(=O)=O)CC3)n2)s1` [Example 77] as the molecule, how does the IC50 read?
Answer: 367 nM

Question: `COc1cccc2c1CN(S(=O)(=O)Nc1cccc(-c3nc(C(C)(C)C)sc3-c3ccnc(NC4CCN(S(C)(=O)=O)CC4)n3)c1F)C2` [Example 78, N-(3-(2-(tert-butyl)-5-(2-((1-(methylsulfonyl)-piperidin-4-yl)amino)-pyrimidin-4-yl)thiazol-4-yl)-2-fluoro-phenyl)-4-methoxyisoindoline-2-sulfonamide] was tested. Which IC50 did it give?
Answer: 65.6 nM

Question: For `CC(C)(C)c1nc(-c2cccc(NS(=O)(=O)N3Cc4ccccc4C3)c2F)c(-c2ccnc(Nc3ccc(N4CCNCC4)cc3)n2)s1` [Example 79, N-(3-(2-(tert-butyl)-5-(2-((4-(piperazin-1-yl)-phenyl)amino)pyrimidin-4-yl)thiazol-4-yl)-2-fluorophenyl)-isoindoline-2-sulfonamide], which IC50 is on record?
Answer: 220 nM

Question: `CC(C)(C)c1nc(-c2cccc(NS(=O)(=O)N3CCCc4ccccc4C3)c2F)c(-c2ccnc(NC3CCN(S(C)(=O)=O)CC3)n2)s1` [Example 80, N-(3-(2-(tert-butyl)-5-(2-((1-(methylsulfonyl)-piperidin-4-yl)amino)-pyrimidin-4-yl)thiazol-4-yl)-2-fluorophenyl)-1,3,4,5-tetrahydro-2H-benzo[c]azepine-2-sulfonamide] was tested. Which IC50 did it give?
Answer: 172 nM

Question: `CC(C)(C)c1nc(-c2cccc(NS(=O)(=O)N3CCc4ccccc4CC3)c2F)c(-c2ccnc(NC3CCN(S(C)(=O)=O)CC3)n2)s1` [Example 81, N-(3-(2-(tert-butyl)-5-(2-((1-(methylsulfonyl)-piperidin-4-yl)amino)-pyrimidin-4-yl)thiazol-4-yl)-2-fluoro-phenyl)-1,2,4,5-tetrahydro-3H-benzo[d]azepine-3-sulfonamide] was tested. Which IC50 did it give?
Answer: 3730 nM

Question: With `CC(C)(C)c1nc(-c2cccc(NS(=O)(=O)N3CCCCc4ccccc43)c2F)c(-c2ccnc(NC3CCN(S(C)(=O)=O)CC3)n2)s1` [Example 82, N-(3-(2-(tert-butyl)-5-(2-((1-(methylsulfonyl)piperidin-4-yl)amino)-pyrimidin-4-yl)thiazol-4-yl)-2-fluorophenyl)-2,3,4,5-tetrahydro-1H-benzo[b]azepine-1-sulfonamide] as the molecule, how does the IC50 read?
Answer: 850 nM

Question: With `CC(C)(C)c1nc(-c2cccc(NS(=O)(=O)N3CCn4cncc4C3)c2F)c(-c2ccnc(NC3CCN(S(C)(=O)=O)CC3)n2)s1` [Example 83, N-(3-(2-(tert-butyl)-5-(2-((1-(methylsulfonyl)-piperidin-4-yl)amino)-pyrimidin-4-yl)thiazol-4-yl)-2-fluoro-phenyl)-5,6-dihydroimidazo [1,5-a]-pyrazine-7 (8H)-sulfonamide] as the molecule, how does the IC50 read?
Answer: 1470 nM

Question: With `CC(C)(C)c1nc(-c2cccc(NS(=O)(=O)N3CCn4ccnc4C3)c2F)c(-c2ccnc(NC3CCN(S(C)(=O)=O)CC3)n2)s1` [Example 84, N-(3-(2-(tert-butyl)-5-(2-((1-(methylsulfonyl)-piperidin-4-yl)amino)-pyrimidin-4-yl)thiazol-4-yl)-2-fluoro-phenyl)-5,6-dihydroimidazo [1,2-a]-pyrazine-7(8H)-sulfonamide] as the molecule, how does the IC50 read?
Answer: 1920 nM

Question: `Cn1ncc2c1CN(S(=O)(=O)Nc1cccc(-c3nc(C(C)(C)C)sc3-c3ccnc(NC4CCN(S(C)(=O)=O)CC4)n3)c1F)C2` [Example 85, N-(3-(2-(tert-butyl)-5-(2-((1-(methylsulfonyl)-piperidin-4-yl)amino)-pyrimidin-4-yl)thiazol-4-yl)-2-fluoro-phenyl)-1-methyl-4,6-dihydro-pyrrolo[3,4-c]pyrazole-5(1H)-sulfonamide] was tested. Which IC50 did it give?
Answer: 394 nM

Question: For `Cn1cc2c(n1)CN(S(=O)(=O)Nc1cccc(-c3nc(C(C)(C)C)sc3-c3ccnc(NC4CCN(S(C)(=O)=O)CC4)n3)c1F)C2` [Example 86, N-(3-(2-(tert-butyl)-5-(2-((1-(methylsulfonyl)-piperidin-4-yl)amino)-pyrimidin-4-yl)thiazol-4-yl)-2-fluoro-phenyl)-2-methyl-2,6-dihydro-pyrrolo[3,4-c]pyrazole-5(4H)-sulfonamide], which IC50 is on record?
Answer: 484 nM

Question: `COc1cc2c(cc1OC)CN(S(=O)(=O)Nc1cccc(-c3nc(C(C)(C)C)sc3-c3ccnc(NC4CCN(S(C)(=O)=O)CC4)n3)c1F)C2` [Example 87, N-(3-(2-(tert-butyl)-5-(2-((1-(methylsulfonyl)-piperidin-4-yl)amino)-pyrimidin-4-yl)thiazol-4-yl)-2-fluorophenyl)-5,6-dimethoxy-isoindoline-2-sulfonamide] was tested. Which IC50 did it give?
Answer: 325 nM

Question: `CN1CCN(S(=O)(=O)Nc2cccc(-c3nc(C(C)(C)C)sc3-c3ccnc(NC4CCN(S(C)(=O)=O)CC4)n3)c2F)CC1=O` [Example 89, N-(3-(2-(tert-butyl)-5-(2-((1-(methylsulfonyl)-piperidin-4-yl)amino)-pyrimidin-4-yl)thiazol-4-yl)-2-fluoro-phenyl)-4-methyl-3-oxopiperazine-1-sulfonamide] was tested. Which IC50 did it give?
Answer: 4810 nM

Question: `CC(C)(C)c1nc(-c2cccc(NS(=O)(=O)N3CCOc4ccccc4C3)c2F)c(-c2ccnc(NC3CCN(S(C)(=O)=O)CC3)n2)s1` [Example 91, N-(3-(2-(tert-butyl)-5-(2-((1-(methylsulfonyl)-piperidin-4-yl)amino)-pyrimidin-4-yl)thiazol-4-yl)-2-fluorophenyl)-2,3-dihydrobenzo [f][1,4]-oxazepine-4 (5H)-sulfonamide] was tested. Which IC50 did it give?
Answer: 117 nM

Question: How did the IC50 turn out when `CC(C)(C)c1nc(-c2cccc(NS(=O)(=O)N3CCc4cc(C#N)ccc43)c2F)c(-c2ccnc(NC3CCN(S(C)(=O)=O)CC3)n2)s1` [Example 92, N-(3-(2-(tert-butyl)-5-(2-((1-(methylsulfonyl)piperidin-4-yl)amino)-pyrimidin-4-yl)thiazol-4-yl)-2-fluorophenyl)-5-cyanoindoline-1-sulfonamide] was run?
Answer: 305 nM

Question: Which IC50 does the source give for `CC(C)(C)c1nc(-c2cccc(NS(=O)(=O)N3CCN(S(C)(=O)=O)CC3)c2F)c(-c2ccnc(NC3CCN(S(C)(=O)=O)CC3)n2)s1` [Example 93, N-(3-(2-(tert-butyl)-5-(2-((1-(methylsulfonyl)piperidin-4-yl)amino)-pyrimidin-4-yl)thiazol-4-yl)-2-fluorophenyl)-4-(methylsulfonyl)-piperazine-1-sulfonamide] here?
Answer: 3030 nM
